A short description of series [1]: Storage stability. The series is classed as physicochemical. As for the experimental part:
After, it is diluted by saline; it can be stored in a refrigerator at +4°C between 24-48 hours. It can be stored in room temperature for 10-12 hours.

The test system of series [2] is GABA levels in the brain. The series is described as follows: GABA levels in the brain after administration (unpublished data). The series is classed as in vivo. As to conditions: Gly-Gln administration; unpublished data from applicant's laboratory. The text has this:
This innovation is related with the use of glycyl-glutamine in the treatment and/or prophylaxis of depression disorder and/or anxiety, which meets all above-mentioned requirements, eliminates all disadvantages and provides some advantages. The purpose of the current invention is to use Glycyl-Glutamine (Gly-Gln) in the treatment and/or prophylaxis of depression and/or anxiety via its effects in the brain other than its metabolic products' (glycine and glutamine) separate effects. […] Glutamine exerts antidepressant effects by increasing gamma-aminobutyric acid (GABA) in the brain however Gly-Gln generates antidepressant effects by increasing serotonin levels in the brain.

The subject of series [3] is rodents. The series is described as follows: Forced Swimming Test. The series is classed as in vivo, rats. Conditions: intracerebroventricular, 100 nmol/10 µl, n=12. The text has this:
It has been proven as a result of the tests performed on animals that Glycyl-glutamine is therapeutic on depression and anxiety disorders. These aforementioned studies have been performed by means of "the Forced Swimming Test" method, which is the most applied animal model, used in antidepressant treatment surveys. The forced swimming test had been developed by Porsolt et al., (1978) and it is the most applied animal model in depression surveys especially the antidepressant treatment surveys. […] After the same animal is placed in the same tank twenty-four hours after the first time, it is observed that the time passes until inactivity reduces. Inactivity is expressed as losing behaviors of trying to escape in other words "behavioral helplessness". The forced swimming test is a similar response to learned helplessness. The efforts spent for an escape comes to an end for the animal, which understands it is exposed to a stress it will not be able to escape. Thus, it can be understood by that test model whether the antidepressant medications, which are administered before the second administration, show antidepressant effects or not. In practice, the post-treatment behaviors of the animal change for reducing behavioral helplessness. The time passed until inactivity is extended by means of acute or short-term antidepressant treatments and total time of inactivity is decreased. […] Because, it is an easy to apply practice, this model is used extensively (Cryan et al., 2002).
In Figure 1, the effect of intracerebroventricular Gly-Gln injection on the first term of inactivity. When, Gly-Gln has been administered centrally, it has extended the time passed until first inactivity compared to the control animals. While, the time passed until first inactivity of the rodents which have been centrally administered saline (10 µl) has been 14,9 ± 2,8 seconds (n=14), the time passed until first inactivity of the rodent which have been applied Gly-Gln (100 nmol/10 µl) by that same way has been increased to 28,1 ± 6,1 seconds (n=12), (p<0,05).
In Figure 2, the effect of intracerebroventricular Gly-Gln injection on the total term of inactivity. When, Gly-Gln has been administered centrally, it has reduced the total time time of inactivity compared to the control animals. While, the total inactivity time of the rodents which have been centrally administered saline (10 µl) has been 229.4 ± 8.9 seconds (n=14), the time passed until first inactivity of the rodent which have been applied Gly-Gln (100 nmol/10 µl) by the same way has been increased to 172.5 ± 12.8 seconds (n=12), (p<0,001).
In Figure 3, the effect of intracerebroventricular Gly-Gln injection on the escalation and swimming times. […]

Series [4] has as its system serotonin output at the nucleus accumbency section of the brain. The series is described as follows: Brain micro-dialysis, serotonin output. The series is classed as in vivo, rats. Conditions: single intracerebroventricular 100 nmol dose, 2 hours of monitoring, versus saline; p<0.001. As for the experimental part:
The source of the antidepressant effects of Gly-Gln, which is mentioned in the figure descriptions above, have been analyzed and shown in Figures 4 and 5. In Figures 4 and 5; the effect of Gly-Gln on the serotonin output at the nucleus accumbency section of the brain upon intracerebroventricular Gly-Gln injection can be seen. […] An increase in serotonin outputs can be observed in all time intervals throughout 2 hours of monitoring period following the Gly-Gln injection; however, no serotonin output could be observed from the rodents in the control group who had been administered saline injections by the same way. Serotonin, which is structurally a monoamine neurotransmitter, is a hormone, which makes people feel happy, energetic and lively. When, the subject matter hormone serotonin is deficient in people, they feel depressive, tired and boring. […] Furthermore, the word "Saline" indicated in Figure 4 and 5 means salty water. It is used for comparing with the tested medication by administering on the control group.

Peptide text beside a SMILES is read from it.

In the case of `NCC(=O)N[C@@H](CCC(N)=O)C(=O)O` [Gly-Gln, glycyl-glutamine] (H-Gly-Gln-OH), the “storage time, diluted by saline” value fell in the range of 24 to 48 h in series [1] (refrigerator at +4°C) and 10 to 12 h in series [1] (room temperature). The “storage time, non-diluted form” value in series [1] (refrigerator at -20°C) was “very long period of time”. In addition, in series [2], the “GABA levels in the brain” value is listed as “decrease”. Also, the “time passed until first inactivity” value in series [3] (saline control 14,9 ± 2,8 seconds (n=14), p<0,05) is on record as 28,1 ± 6,1 seconds. Also, the swimming time in series [3] (saline control 26,7 ± 2,9 seconds (n=14), p>0.05) is 36,8 ± 4,3 seconds. In addition, the escalation time in series [3] (saline control 43,9 ± 7,0 seconds (n=14)) is on record as 90,8 ± 11,4 seconds. Besides, the total inactivity time in series [3] (saline control 229.4 ± 8.9 seconds (n=14), p<0,001) was 172.5 ± 12.8 s. The “serotonin output at the nucleus accumbency section of the brain” value in series [4] is on record as “extremely increased”.

(Values after patent publication EP2943187B1, “USE OF GLYCYL GLUTAMINE AGAINST DEPRESSION” (Uludag Universitesi Teknoloji Transfer Ofisi Ticaret ve …, priority 2013, dated 2014).)
